{"source": "ChEMBL document CHEMBL1201862", "about": "“PubChem BioAssay data set” (2004)", "test_in_all_cases": "NCI-60 cell line screen, 48 h", "key": {"[1]": {"tested_on": "A498"}, "[2]": {"tested_on": "A549"}, "[3]": {"tested_on": "HCT-15"}, "[4]": {"tested_on": "HL-60"}, "[5]": {"tested_on": "IGROV-1"}, "[6]": {"tested_on": "K562"}, "[7]": {"tested_on": "NCI-H23"}, "[8]": {"tested_on": "NCI-H460"}, "[9]": {"tested_on": "OVCAR-3"}, "[10]": {"tested_on": "OVCAR-4"}, "[11]": {"tested_on": "OVCAR-5"}, "[12]": {"tested_on": "OVCAR-8"}, "[13]": {"tested_on": "SF-295"}, "[14]": {"tested_on": "SK-MEL-5"}, "[15]": {"tested_on": "SK-OV-3"}, "[16]": {"tested_on": "SN12C"}, "[17]": {"tested_on": "SW-620"}, "[18]": {"tested_on": "U-251"}, "[19]": {"tested_on": "UACC-62"}, "[20]": {"tested_on": "UO-31"}}, "note": "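Exposure lasted 48 hours, with cells grown in 96-well plates and compounds tested at five concentrations. Here, GI50 denotes the concentration required for 50% inhibition of growth.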 Active and inactive are the calls of the source. No stated cut-off is given here; in the data, active = GI50 up to about 1.1 µM and inactive = higher.", "data": [{"smiles": "Clc1nc(Cl)nc(Nc2cccc3ccccc23)n1", "values": [{"measurement": "GI50", "setting": "[1]", "value": "> 10 µM (inactive)"}, {"measurement": "GI50", "setting": "[2]", "value": "> 10 µM (inactive)"}, {"measurement": "GI50", "setting": "[3]", "value": "> 10", "unit": "µM"}, {"measurement": "GI50", "setting": "[4]", "value": "7.98 µM (inactive)"}, {"measurement": "GI50", "setting": "[5]", "value": "> 10 µM (inactive)"}, {"measurement": "GI50", "setting": "[6]", "value": "> 10 µM (inactive)"}, {"measurement": "GI50", "setting": "[7]", "value": "> 10 µM (inactive)"}, {"measurement": "GI50", "setting": "[8]", "value": "> 10 µM (inactive)"}, {"measurement": "GI50", "setting": "[9]", "value": "0.0436 µM (active)"}, {"measurement": "GI50", "setting": "[10]", "value": "> 10 µM (inactive)"}, {"measurement": "GI50", "setting": "[11]", "value": "> 10 µM (inactive)"}, {"measurement": "GI50", "setting": "[12]", "value": "> 10 µM (inactive)"}, {"measurement": "GI50", "setting": "[13]", "value": "> 10 µM (inactive)"}, {"measurement": "GI50", "setting": "[14]", "value": "> 10 µM (inactive)"}, {"measurement": "GI50", "setting": "[15]", "value": "> 10 µM (inactive)"}, {"measurement": "GI50", "setting": "[16]", "value": "> 10 µM (inactive)"}, {"measurement": "GI50", "setting": "[17]", "value": "> 10 µM (inactive)"}, {"measurement": "GI50", "setting": "[18]", "value": "> 10 µM (inactive)"}, {"measurement": "GI50", "setting": "[19]", "value": "> 10 µM (inactive)"}, {"measurement": "GI50", "setting": "[20]", "value": "> 10 µM (inactive)"}]}, {"smiles": "CN(C)CCNC(=O)c1cccc2[nH]c(-c3ccc(Cl)cc3)nc12", "values": [{"measurement": "GI50", "setting": "[1]", "value": "10.7 µM (inactive)"}, {"measurement": "GI50", "setting": "[2]", "value": "3.66 µM (inactive)"}, {"measurement": "GI50", "setting": "[3]", "value": 4.99, "unit": "µM"}, {"measurement": "GI50", "setting": "[4]", "value": "2.77 µM (inactive)"}, {"measurement": "GI50", "setting": "[5]", "value": "7.35 µM (inactive)"}, {"measurement": "GI50", "setting": "[6]", "value": "2.93 µM (inactive)"}, {"measurement": "GI50", "setting": "[7]", "value": "7.41 µM (inactive)"}, {"measurement": "GI50", "setting": "[8]", "value": "3.12 µM (inactive)"}, {"measurement": "GI50", "setting": "[9]", "value": "10.2 µM (inactive)"}, {"measurement": "GI50", "setting": "[10]", "value": "7.24 µM (inactive)"}, {"measurement": "GI50", "setting": "[11]", "value": "10.3 µM (inactive)"}, {"measurement": "GI50", "setting": "[12]", "value": "4.61 µM (inactive)"}, {"measurement": "GI50", "setting": "[13]", "value": "8.18 µM (inactive)"}, {"measurement": "GI50", "setting": "[14]", "value": "4.8 µM (inactive)"}, {"measurement": "GI50", "setting": "[15]", "value": "11.4 µM (inactive)"}, {"measurement": "GI50", "setting": "[16]", "value": "5.07 µM (inactive)"}, {"measurement": "GI50", "setting": "[17]", "value": "3.96 µM (inactive)"}, {"measurement": "GI50", "setting": "[18]", "value": "5.42 µM (inactive)"}, {"measurement": "GI50", "setting": "[19]", "value": "5.53 µM (inactive)"}, {"measurement": "GI50", "setting": "[20]", "value": "2.69 µM (inactive)"}]}, {"smiles": "C=CCOC1=C(OCC=C)C(C2COC(C)(C)O2)OC1=O", "note": "(stereo not given)", "values": [{"measurement": "GI50", "setting": "[1]", "value": "> 100 µM (inactive)"}, {"measurement": "GI50", "setting": "[2]", "value": "> 100 µM (inactive)"}, {"measurement": "GI50", "setting": "[3]", "value": "> 100", "unit": "µM"}, {"measurement": "GI50", "setting": "[4]", "value": "45 µM (inactive)"}, {"measurement": "GI50", "setting": "[5]", "value": "> 100 µM (inactive)"}, {"measurement": "GI50", "setting": "[6]", "value": "75.5 µM (inactive)"}, {"measurement": "GI50", "setting": "[7]", "value": "> 100 µM (inactive)"}, {"measurement": "GI50", "setting": "[8]", "value": "> 100 µM (inactive)"}, {"measurement": "GI50", "setting": "[9]", "value": "> 100 µM (inactive)"}, {"measurement": "GI50", "setting": "[10]", "value": "> 100 µM (inactive)"}, {"measurement": "GI50", "setting": "[11]", "value": "> 100 µM (inactive)"}, {"measurement": "GI50", "setting": "[12]", "value": "> 100 µM (inactive)"}, {"measurement": "GI50", "setting": "[13]", "value": "> 100 µM (inactive)"}, {"measurement": "GI50", "setting": "[14]", "value": "> 100 µM (inactive)"}, {"measurement": "GI50", "setting": "[15]", "value": "> 100 µM (inactive)"}, {"measurement": "GI50", "setting": "[16]", "value": "> 100 µM (inactive)"}, {"measurement": "GI50", "setting": "[17]", "value": "> 100 µM (inactive)"}, {"measurement": "GI50", "setting": "[18]", "value": "> 100 µM (inactive)"}, {"measurement": "GI50", "setting": "[19]", "value": "> 100 µM (inactive)"}, {"measurement": "GI50", "setting": "[20]", "value": "> 100 µM (inactive)"}]}, {"smiles": "CC(NCCS(=O)(=O)O)C(=O)O", "note": "(stereo not given)", "values": [{"measurement": "GI50", "setting": "[1]", "value": "> 77.3 µM (inactive)"}, {"measurement": "GI50", "setting": "[2]", "value": "> 100 µM (inactive)"}, {"measurement": "GI50", "setting": "[3]", "value": "> 100", "unit": "µM"}, {"measurement": "GI50", "setting": "[4]", "value": "> 100 µM (inactive)"}, {"measurement": "GI50", "setting": "[5]", "value": "> 100 µM (inactive)"}, {"measurement": "GI50", "setting": "[6]", "value": "> 100 µM (inactive)"}, {"measurement": "GI50", "setting": "[7]", "value": "> 100 µM (inactive)"}, {"measurement": "GI50", "setting": "[8]", "value": "> 100 µM (inactive)"}, {"measurement": "GI50", "setting": "[9]", "value": "> 45.6 µM (inactive)"}, {"measurement": "GI50", "setting": "[10]", "value": "> 100 µM (inactive)"}, {"measurement": "GI50", "setting": "[11]", "value": "> 100 µM (inactive)"}, {"measurement": "GI50", "setting": "[12]", "value": "> 100 µM (inactive)"}, {"measurement": "GI50", "setting": "[13]", "value": "> 100 µM (inactive)"}, {"measurement": "GI50", "setting": "[14]", "value": "> 100 µM (inactive)"}, {"measurement": "GI50", "setting": "[15]", "value": "> 100 µM (inactive)"}, {"measurement": "GI50", "setting": "[16]", "value": "> 100 µM (inactive)"}, {"measurement": "GI50", "setting": "[17]", "value": "> 100 µM (inactive)"}, {"measurement": "GI50", "setting": "[18]", "value": "> 100 µM (inactive)"}, {"measurement": "GI50", "setting": "[19]", "value": "> 100 µM (inactive)"}, {"measurement": "GI50", "setting": "[20]", "value": "> 100 µM (inactive)"}]}, {"smiles": "Nc1nc(N)c2c(n1)NC(=O)c1c(c3ccccc3n1Cc1ccc(Cl)cc1)C2", "values": [{"measurement": "GI50", "setting": "[1]", "value": "16 µM (inactive)"}, {"measurement": "GI50", "setting": "[2]", "value": "21.1 µM (inactive)"}, {"measurement": "GI50", "setting": "[3]", "value": 17, "unit": "µM"}, {"measurement": "GI50", "setting": "[4]", "value": "18 µM (inactive)"}, {"measurement": "GI50", "setting": "[5]", "value": "29.6 µM (inactive)"}, {"measurement": "GI50", "setting": "[6]", "value": "25.6 µM (inactive)"}, {"measurement": "GI50", "setting": "[7]", "value": "> 100 µM (inactive)"}, {"measurement": "GI50", "setting": "[8]", "value": "18.2 µM (inactive)"}, {"measurement": "GI50", "setting": "[9]", "value": "23.3 µM (inactive)"}, {"measurement": "GI50", "setting": "[10]", "value": "18.5 µM (inactive)"}, {"measurement": "GI50", "setting": "[11]", "value": "48.9 µM (inactive)"}, {"measurement": "GI50", "setting": "[12]", "value": "26.4 µM (inactive)"}, {"measurement": "GI50", "setting": "[13]", "value": "34.2 µM (inactive)"}, {"measurement": "GI50", "setting": "[14]", "value": "15.3 µM (inactive)"}, {"measurement": "GI50", "setting": "[15]", "value": "18.8 µM (inactive)"}, {"measurement": "GI50", "setting": "[16]", "value": "17.3 µM (inactive)"}, {"measurement": "GI50", "setting": "[17]", "value": "35.8 µM (inactive)"}, {"measurement": "GI50", "setting": "[18]", "value": "25.8 µM (inactive)"}, {"measurement": "GI50", "setting": "[19]", "value": "45.7 µM (inactive)"}, {"measurement": "GI50", "setting": "[20]", "value": "> 100 µM (inactive)"}]}, {"smiles": "O=C(O)CNS(=O)(=O)c1ccc(NC(=O)Nc2ccccc2)cc1", "values": [{"measurement": "GI50", "setting": "[1]", "value": "> 100 µM (inactive)"}, {"measurement": "GI50", "setting": "[2]", "value": "> 100 µM (inactive)"}, {"measurement": "GI50", "setting": "[3]", "value": "> 100", "unit": "µM"}, {"measurement": "GI50", "setting": "[4]", "value": "> 31.6 µM (inactive)"}, {"measurement": "GI50", "setting": "[5]", "value": "> 37.6 µM (inactive)"}, {"measurement": "GI50", "setting": "[6]", "value": "> 100 µM (inactive)"}, {"measurement": "GI50", "setting": "[7]", "value": "> 100 µM (inactive)"}, {"measurement": "GI50", "setting": "[8]", "value": "> 100 µM (inactive)"}, {"measurement": "GI50", "setting": "[9]", "value": "> 100 µM (inactive)"}, {"measurement": "GI50", "setting": "[10]", "value": "> 100 µM (inactive)"}, {"measurement": "GI50", "setting": "[11]", "value": "> 100 µM (inactive)"}, {"measurement": "GI50", "setting": "[12]", "value": "> 100 µM (inactive)"}, {"measurement": "GI50", "setting": "[13]", "value": "> 100 µM (inactive)"}, {"measurement": "GI50", "setting": "[14]", "value": "> 100 µM (inactive)"}, {"measurement": "GI50", "setting": "[15]", "value": "> 100 µM (inactive)"}, {"measurement": "GI50", "setting": "[16]", "value": "> 100 µM (inactive)"}, {"measurement": "GI50", "setting": "[17]", "value": "> 100 µM (inactive)"}, {"measurement": "GI50", "setting": "[18]", "value": "> 100 µM (inactive)"}, {"measurement": "GI50", "setting": "[19]", "value": "> 38.3 µM (inactive)"}, {"measurement": "GI50", "setting": "[20]", "value": "> 100 µM (inactive)"}]}]}
